In article PMC12307812 (Nature Communications, 2025):

Target: T1, Recombinant Human TMPRSS2 (Homo sapiens, UniProt O15393)
T1 construct: human TMPRSS2 residues 106492, N-terminal 6x His-tag; 6x His-tag (N); purchased Cusabio CSB-YP023924HU; host or cells: yeast
Experiment: TMPRSS2 biochemical assay with pre-incubation of inhibitor and enzyme
Settings: for inhibition at 2.788 pM: concentration 0.00278767 nM; for inhibition at 8.363 pM: concentration 0.00836301 nM; for inhibition at 25.09 pM: concentration 0.025089 nM; for inhibition at 75.27 pM: concentration 0.0752671 nM; for inhibition at 0.000225801 µM: concentration 0.225801 nM; for inhibition at 0.000677404 µM: concentration 0.677404 nM; for inhibition at 0.00203221 µM: concentration 2.03221 nM; for inhibition at 0.00609663 µM: concentration 6.09663 nM; for inhibition at 0.0182899 µM: concentration 18.2899 nM; for inhibition at 0.0548697 µM: concentration 54.8697 nM; for inhibition at 0.164609 µM: concentration 164.609 nM; for inhibition at 0.493827 µM: concentration 493.827 nM; for inhibition at 1.48148 µM: concentration 1481.48 nM; for inhibition at 4.44444 µM: concentration 4444.44 nM; for inhibition at 13.3333 µM: concentration 13333.3 nM; for inhibition at 40 µM: concentration 40000 nM
Experimental: To that was dispensed TMPRSS2 (5 µl, 0.018 mg/ml) in assay buffer (50 mM Tris pH 8, 150 mM NaCl, 0.01% Tween20) using a BioRAPTR (Beckman Coulter) to give a total reaction volume of 5 µl. […] The final assay conditions are 10 µM peptide, 0.018 mg/ml TMPRSS2 in assay buffer (50 mM Tris-HCl, pH 8, 150 mM NaCl, 0.01% Tween20).
After incubation at room temperature for 1 h, fluorescence was measured. […] Raw plate reads for each titration point were normalized relative to a positive control containing no enzyme (0% activity, full inhibition) and a negative control containing DMSO-only wells (100% activity, basal activity). Data normalization was performed using GraphPad Prism (GraphPad Software, San Diego, CA).
We employed the curve fitting algorithm available in the SciPy package (version 1.10.1)[61] to derive the Hill slope and the IC50 value, along with their corresponding error estimates.
To model the relationship between the pre-incubation time and the IC50, we use the following equation inspired by the Morse potential:3 ft,a,D,te=D⋅1−exp−a⋅t−te^2 where t is the time, a is the width of the well, D is the IC50 at infinite time (depth of the well) and te is the time at which the IC50 reaches its minimum. Again, we made use of SciPy’s curve fitting method to obtain parameters a, D and te, with their respective error estimates.

T1 sequence (O15393 106-492 limits assumed): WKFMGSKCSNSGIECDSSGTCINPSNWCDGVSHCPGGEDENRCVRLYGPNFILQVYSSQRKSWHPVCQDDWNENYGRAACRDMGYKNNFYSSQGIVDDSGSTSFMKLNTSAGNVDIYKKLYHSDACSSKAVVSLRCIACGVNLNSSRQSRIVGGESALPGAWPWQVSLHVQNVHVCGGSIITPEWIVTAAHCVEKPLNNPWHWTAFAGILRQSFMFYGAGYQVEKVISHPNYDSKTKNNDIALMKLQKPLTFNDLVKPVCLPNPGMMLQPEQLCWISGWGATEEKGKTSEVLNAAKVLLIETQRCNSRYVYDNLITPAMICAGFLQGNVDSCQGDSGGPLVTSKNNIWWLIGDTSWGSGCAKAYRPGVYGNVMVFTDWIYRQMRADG

In the case of `CN(C)C(=O)COC(=O)Cc1ccc(OC(=O)c2ccc(NC(=N)N)cc2)cc1` [camostat], the inhibition at 2.788 pM (pre-incubation 0) is reported as -8.21%, the inhibition at 8.363 pM (pre-incubation 0) is reported as -16.5% and the inhibition at 25.09 pM (pre-incubation 0) is reported as -12.1%. The inhibition at 75.27 pM (pre-incubation 0) was 11.6%, the inhibition at 0.000225801 µM (pre-incubation 0) was 44.8% and the inhibition at 0.000677404 µM (pre-incubation 0) was 63.8%. The inhibition at 0.00203221 µM (pre-incubation 0) was 78.4%, the inhibition at 0.00609663 µM (pre-incubation 0) was 87.8% and the inhibition at 0.0182899 µM (pre-incubation 0) was 93.9%. The inhibition at 0.0548697 µM (pre-incubation 0) was 95.2%, the inhibition at 0.164609 µM (pre-incubation 0) was 94.9% and the inhibition at 0.493827 µM (pre-incubation 0) was 96.5%. For the same molecule, the inhibition at 1.48148 µM (pre-incubation 0) was 97.9%, the inhibition at 4.44444 µM (pre-incubation 0) was 97.2% and the inhibition at 13.3333 µM (pre-incubation 0) was 98.7%. It also gave an inhibition at 40 µM (pre-incubation 0) of 98.9%, an inhibition at 2.788 pM (pre-incubation 1) of 6.01% and an inhibition at 8.363 pM (pre-incubation 1) of 2.49%. For the same molecule, the inhibition at 25.09 pM (pre-incubation 1) was 10%, the inhibition at 75.27 pM (pre-incubation 1) was 58.4% and the inhibition at 0.000225801 µM (pre-incubation 1) was 90.2%. It also gave an inhibition at 0.000677404 µM (pre-incubation 1) of 93.6%, an inhibition at 0.00203221 µM (pre-incubation 1) of 94.9% and an inhibition at 0.00609663 µM (pre-incubation 1) of 95.1%. The inhibition at 0.0182899 µM (pre-incubation 1) was 94.9%, the inhibition at 0.0548697 µM (pre-incubation 1) was 96.1% and the inhibition at 0.164609 µM (pre-incubation 1) was 96%. It also gave an inhibition at 0.493827 µM (pre-incubation 1) of 95.8%, an inhibition at 1.48148 µM (pre-incubation 1) of 97.1% and an inhibition at 4.44444 µM (pre-incubation 1) of 97.4%. The inhibition at 13.3333 µM (pre-incubation 1) was 98.2%, the inhibition at 40 µM (pre-incubation 1) was 99.4% and the inhibition at 2.788 pM (pre-incubation 4) was 8.38%. It also gave an inhibition at 8.363 pM (pre-incubation 4) of 5.55%, an inhibition at 25.09 pM (pre-incubation 4) of 35.8% and an inhibition at 75.27 pM (pre-incubation 4) of 91%. It also gave an inhibition at 0.000225801 µM (pre-incubation 4) of 96.5%, an inhibition at 0.000677404 µM (pre-incubation 4) of 97.6% and an inhibition at 0.00203221 µM (pre-incubation 4) of 97.9%. The inhibition at 0.00609663 µM (pre-incubation 4) was 98.2%, the inhibition at 0.0182899 µM (pre-incubation 4) was 98% and the inhibition at 0.0548697 µM (pre-incubation 4) was 98.6%. It also gave an inhibition at 0.164609 µM (pre-incubation 4) of 98.2%, an inhibition at 0.493827 µM (pre-incubation 4) of 99.2% and an inhibition at 1.48148 µM (pre-incubation 4) of 99.4%. For the same molecule, the inhibition at 4.44444 µM (pre-incubation 4) was 100%, the inhibition at 13.3333 µM (pre-incubation 4) was 101% and the inhibition at 40 µM (pre-incubation 4) was 102%. The inhibition at 2.788 pM (pre-incubation 8) was 20.8%, the inhibition at 8.363 pM (pre-incubation 8) was 10.7% and the inhibition at 25.09 pM (pre-incubation 8) was 61.7%. For the same molecule, the inhibition at 75.27 pM (pre-incubation 8) was 104%, the inhibition at 0.000225801 µM (pre-incubation 8) was 108% and the inhibition at 0.000677404 µM (pre-incubation 8) was 110%. The inhibition at 0.00203221 µM (pre-incubation 8) was 111%, the inhibition at 0.00609663 µM (pre-incubation 8) was 112% and the inhibition at 0.0182899 µM (pre-incubation 8) was 111%. It also gave an inhibition at 0.0548697 µM (pre-incubation 8) of 112%, an inhibition at 0.164609 µM (pre-incubation 8) of 113% and an inhibition at 0.493827 µM (pre-incubation 8) of 113%. For the same molecule, the inhibition at 1.48148 µM (pre-incubation 8) was 114%, the inhibition at 4.44444 µM (pre-incubation 8) was 115% and the inhibition at 13.3333 µM (pre-incubation 8) was 114%. It also gave an inhibition at 40 µM (pre-incubation 8) of 115% and an inhibition at 2.788 pM (pre-incubation 18) of 24.4%.
